Reference: US4436799A, “Photographic products and processes employing novel nondiffusible magenta dye-releasing compounds and precursors thereof” (priority 1983, dated 1984)
“And” between values parts separate entries of the source, which are not always exact repeats. Equal entries are not always repeated.

What was measured:
Assay type in all cases: physicochemical
[1] = Comparative spectra on mordanted strips (Example 2); conditions: 2:1 nickel complex on mordanted strip; for HBW: band width at half Dmax; for λmax: wavelength(s) at actual Dmax
Source text: The absorption envelope of each of the metallized dyes is described by (1) the wavelength(s), λmax, at the actual Dmax, (2) the λ1/2 which is the mean of the wavelength limits of the absorption envelope at half the maximum density, and (3) the halfband width (HBW) which is the band width at half the Dmax. A narrow HBW generally designates a purer hue.

[2] = Dye diffusion, gel pad test; conditions: 0.1 M KOH, 1.3×10^-3 M dye
Source text: (§1) The released dyes in Table I were also subjected to the conditions of two different dye diffusion tests. One, the "solution test" involved dissolving the dye in a viscous composition and transferring it through a receiving element which contains an opaque and reflecting layer in addition to the mordant layer. The other, a "gel pad test" involved imbibing the dye from solution into a thick gelatin layer, and then transferring it by direct lamination to the same receiving element which had been preswollen by soaking 5 minutes in a solution of […].
(§2) A transparent poly(ethylene terephthalate) film support coated with
(§3) (3) an overcoat layer of gelatin (4.3).
A donor element, containing a thick pad of deionized acid-processed gelatin (26 g/m^2) hardened with 2 percent bis(vinylsulfonylmethyl)ether, was imbibed with a solution of 0.1 M in potassium hydroxide and 1.3×10^-3 M in dye. The pad was soaked to full penetration, surface wiped, and then laminated in direct contact to the above receiving element which had been presoaked for 5 minutes at 0.1 M KOH. The t-1/2 of dye transfer was obtained as in the solution test.

[3] = Dye diffusion, solution test; conditions: pH 13.4, 0.0025 M dye
Source text: as §1, §2, §3
The viscous composition was prepared from 46.2 g potassium hydroxide and 54 g carboxymethylcellulose dissolved in 1200 ml water. […] Measurement of the rate of dye diffusion was commenced at the point at which half of the laminate had passed through the rollers. The appearance of dye on the mordant was measured at λmax as diffuse reflection density vs. time. The reflection density was converted to transmission density by computer with the aid of a mathematical relation derived from a previous calibration. A plot of transmission density, which is proportional to concentration vs. time, was derived; and the value of t-1/2 of dye transfer, the time in seconds required to obtain one-half of the maximum transmission density, calculated.

[4] = Spectra of Ni-dye complexes in solution; conditions: 3:1 dioxane:water, pH 7, excess nickel ion; for Solution HBW of Ni-dye complex: half band width
Source text: The receiver was removed from the dye solution, washed in distilled water, placed in a pH 7.0 buffer solution and dried. Transmission spectra obtained on each sample of the mordanted dyes were normalized by computer to a density of 1.0. The characteristic wavelength of the dye, λ1/2 in nm, is the mean of the wavelength limits of the absorption envelope at half the maximum density. The HBW ("half band width") in nm is the range or distance between those limits. The dye solution spectrum in 3:1 dioxane:water at pH 7 in the presence of excess nickel ion is also given.

[5] = Light stability (percent fade after HID xenon arc irradiation); conditions: 10 days HID 6000 W xenon arc, 50,000 lux, Wratten 2B filter, approx. 38° C.
Source text: An alternative receiving element was used with the premetallized dye-complexes. It comprised a poly(ethylene terephthalate) film support having thereon a layer of gelatin (1.1 g/m^2) and a mordant layer of poly(styrene-co-1-vinylimidazole-co-3-benzyl-1-vinylimidazolium chloride (50:40:10) (4.5 g/m^2) and gelatin (2.2 g/m^2).
The above receiving elements at pH 7 were then subjected to 10 days irradiation by a high intensity daylight (HID), 6000 W Xenon arc lamp, the sample receiving 50,000 lux through a Wratten 2B (ultraviolet) filter at approximately 38° C. and low humidity. The percent fade represents the loss in density at λmax after irradiation.

[6] = Transmission spectra of Ni-dye complexes on mordanted receiving element (Example 1); conditions: pH 7.0 buffer
[7] = Extinction in solution with Ni2+ (synthesis examples)
Protocol: To a solution of 5.5 g (12.1 mmol) Compound E in 200 ml tetrahydrofuran, 100 ml pyridine and 4.8 g (37.2 mmol) N,N-diisopropylethylamine was added 3.0 g (3.17 mmol) 3,6-bis(1-p-t-butylphenylethyl)-2,5-bis(N-n-dodecylchloroformamidomethyl)benzoquinone (see U.S. Pat. No. 4,204,870, Col. 31). After stirring for 1 hour, an additional 2.5 g (2.64 mmol) of the acid chloride is added and the reaction stirred 28 hours at room temperature. The crude reaction mixture was concentrated to ca. 100 ml in vacuo at 40° C. and the residue was partitioned between ethyl acetate and 3 N HCl. The layers were separated, the organic phase washed with 3 N HCl (until washings were acidic), water and saturated sodium chloride solution. After drying (MgSO4) the organic phase was evaporated in vacuo and the residue recrystallized twice from 350-400 ml ethanol. Yield 7.5 g (72 percent) of yellow solid: ε^550 =13.0×10^4 (3:1 dioxane-pH 6 buffer+excess Ni^2+).
A solution of 5.0 g (31.4 mmol) quinoline-5,8-quinone [T. Urbanski and S. Krzyzanowski, Roczniki Chem., 27, 390 (1953); Chem. Abstr., 49, 1041b (1955)] in 50 ml ethyl alcohol and 100 ml tetrahydrofuran was chilled to <5° C. Concentrated HCl (1 ml) and a cold slurry of 10.0 g (31.8 mmol) 3-chloro-5-(m-hydroxyphenylsulfamoyl)-7-pyridylhydrazine in 100 ml ethyl alcohol/0.5 ml concentrated HCl were added in that order. […]

[8] = premetallized compound, alternative receiving element
[9] = nickel sulfate/gelatin + poly(4-vinylpyridine)/gelatin mordant receiver, normalized to density 1.0

Row | Dye diffusion t1/2, Soln. [3] | Solution λ1/2 of Ni-dye complex [4] | Solution HBW of Ni-dye complex [4] | % Fade (loss in density at λmax) ([5]; low humidity, pH 7) | Mordant HBW of Ni-dye complex [6, 9] | Mordant λ1/2 of Ni-dye complex [6, 9] | Compound | λ1/2 [1] | HBW [1] | λmax [1] | Dye diffusion t1/2, Gel Pad [2] | also measured
1 |  |  |  |  |  |  | 2:1 nickel complex of 6-(2-carboxy-4-chlorphenylazo)-2,3-pyridinediol [Control Dye 3] | 545 nm | 86 nm | 555 nm |  | 
2 | 41 s | 548 nm | 70 nm | 2% | 76 nm | 553 nm | NS(=O)(=O)c1cccc(NS(=O)(=O)c2cnc(N=Nc3ccc(O)c4cccnc34)c(Cl)c2)c1 [A] |  |  |  | 183 s | Solution HBW of Ni-dye complex ([4]; listed as A'): 68 nm; Solution λ1/2 of Ni-dye complex ([4]; listed as A'): 545 nm; % Fade (loss in density at λmax) [5, 8]: 3%; Dye diffusion t1/2, Gel Pad ([2]; listed as A'): 235 s; Mordant HBW of Ni-dye complex [6, 8]: 85 nm; Mordant λ1/2 of Ni-dye complex [6, 8]: 555 nm
3 | 31 s | 543 nm | 65 nm | 0% | 67 nm | 545 nm | NS(=O)(=O)c1cnc(N=Nc2ccc(O)c3cccnc23)c(Cl)c1 [B] |  |  |  | 108 s | Solution HBW of Ni-dye complex ([4]; listed as B'): 68 nm; Solution λ1/2 of Ni-dye complex ([4]; listed as B'): 544 nm; % Fade (loss in density at λmax) [5, 8]: 4%; Dye diffusion t1/2, Gel Pad ([2]; listed as B'): 161 s; Mordant HBW of Ni-dye complex [6, 8]: 71 nm; Mordant λ1/2 of Ni-dye complex [6, 8]: 546 nm
4 |  |  |  |  |  |  | CCCCCCCCCCCCN(CC1=C(C(C)c2ccc(C(C)(C)C)cc2)C(=O)C(CN(CCCCCCCCCCCC)C(=O)Oc2cccc(NS(=O)(=O)c3cnc(N=Nc4ccc(O)c5cccnc45)c(Cl)c3)c2)=C(C(C)c2ccc(C(C)(C)C)cc2)C1=O)C(=O)Oc1cccc(NS(=O)(=O)c2cnc(N=Nc3ccc(O)c4cccnc34)c(Cl)c2)c1 (stereo not drawn) [Compound 3] |  |  |  |  | ε^550 ([7]; 3:1 dioxane-pH 6 buffer + excess Ni^2+): 13.0×10^4
5 | 37 s | 560 nm | 79 nm |  | 82 nm | 563 nm | COc1cc(S(=O)(=O)NC(C)(C)C)cnc1N=Nc1ccc(O)c2cccnc12 [Compound C] | 545 nm | 67 nm | 560 nm |  | 
6 | 44 s | 543 nm | 68 nm |  | 66 nm | 547 nm | CC(C)NS(=O)(=O)c1cnc(N=Nc2ccc(O)c3cccnc23)c(Cl)c1 [Compound D] |  |  |  |  | 
7 | 39 s | 544 nm | 65 nm | 1% | 70 nm | 550 nm | O=S(=O)(Nc1cccc(O)c1)c1cnc(N=Nc2ccc(O)c3cccnc23)c(Cl)c1 [Compound E, 8-[3-Chloro-5-(m-hydroxyphenylsulfamoyl)-2-pyridylazo]-5-quinolinol] |  |  |  |  | ε^550 ([7]; 3:1 dioxane-pH 6 buffer + Ni^2+): 6.6×10^4
8 | 69 s | 543 nm | 68 nm | 0% | 66 nm | 546 nm | CN(c1cccc(O)c1)S(=O)(=O)c1cnc(N=Nc2ccc(O)c3cccnc23)c(Cl)c1 [F] |  |  |  |  | 
9 | 81 s | 542 nm | 65 nm | 0% | 70 nm | 548 nm | O=S(=O)(Nc1ccccc1)c1cnc(N=Nc2ccc(O)c3cccnc23)c(Cl)c1 [G] |  |  |  |  | 
10 | 49 s | 548 nm | 63 nm | 7% | 72 nm | 549 nm | CC(C)NS(=O)(=O)c1cnc(N=Nc2ccc(O)c3cc(C(=O)Nc4cccc(O)c4)c(Cl)nc23)c(Cl)c1 [H] |  |  |  |  | 
11 | 40 s | 559 nm | 78 nm | 0% | 87 nm | 568 nm | COc1cc(S(=O)(=O)Nc2cccc(O)c2)cnc1N=Nc1ccc(O)c2cccnc12 [J] |  |  |  |  | 

Row | Compound | Dye diffusion t1/2, Soln. [3] | Solution λ1/2 of Ni-dye complex [4] | Solution HBW of Ni-dye complex [4] | % Fade (loss in density at λmax) ([5]; low humidity, pH 7) | Mordant HBW of Ni-dye complex [6, 9] | Mordant λ1/2 of Ni-dye complex [6, 9] | λ1/2 [1] | HBW [1] | λmax [1] | Dye diffusion t1/2, Gel Pad [2] | also measured
12 | 2:1 nickel complex of 2-(2-pyridylazo)-4-sulfamoyl-1-naphthol [Control Dye 1] | 49 s |  |  |  |  |  | 537 nm | 101 nm | 553 nm and 567 nm | 281 s | 
13 | CN(c1ccccc1)c1ccc(N=Nc2ccc(S(N)(=O)=O)cn2)c([O-])c1.CN(c1ccccc1)c1ccc(N=Nc2ccc(S(N)(=O)=O)cn2)c([O-])c1.[Ni+2] [Control Dye 2, 2:1 nickel complex of 2-(5-sulfamoyl-2-pyridylazo)-5-(N-methylanilino)phenol] | 45 s |  |  |  |  |  | 540 nm | 116 nm | 540 nm and 572 nm | 265 s | 
